The text below walks through data of ChEMBL document CHEMBL5500329, “Identification of dihydroquinolizinone derivatives with nitrogen heterocycle moieties as new anti-HBV agents” (Eur J Med Chem, 2024).

In data set [1] the test system is Hepatitis B virus. Nature of the data set: Antiviral activity against Hepatitis B virus assessed as inhibition of HbsAg level. Type of data set: functional, organism-based.
The test system of data set [2] is Hepatitis B virus. As to the kind of experiment: Antiviral activity against Hepatitis B virus assessed as inhibition of HbeAg level. Type of data set: functional, organism-based.
Data set [3] relates to Hepatitis B virus. Nature of the data set: Antiviral activity against Hepatitis B virus assessed as inhibition of HBV DNA production. Type of data set: functional, organism-based.
Data set [4] has as its system HT-22. As to the kind of experiment: Cytotoxicity against mouse HT-22 cells assessed as reduction in cell viability at 10 uM. The settings on record: ht-22, 10 µM. Type of data set: toxicity, cell-based.
A short description of data set [5]: Cytotoxicity against mouse HT-22 cells assessed as cell viability at 30 uM relative to control. Type of data set: toxicity, cell-based. The settings on record: read-out: Activity.
In data set [6] the test system is HT-22. As to the kind of experiment: Cytotoxicity against mouse HT-22 cells assessed as reduction in cell viability at 30 uM. Type of data set: toxicity, cell-based. The settings on record: ht-22, 30 µM.
A short description of data set [7]: Half-life in mouse at 10 mg/kg, po administered as single dose. The note with it: in vivo. Type of data set: ADME, organism-based.
Data set [8] in a line: Neurotoxicity in mouse HT-22 cells assessed as reduction in neurite length at 10 uM. The settings on record: ht-22, 10 µM. Type of data set: toxicity, cell-based.
Data set [9] in a line: AUC (0 to infinity) in mouse at 10 mg/kg, po administered as single dose. The note with it: in vivo. Type of data set: ADME, organism-based.
The nature of data set [10]: Tmax in mouse at 10 mg/kg, po administered as single dose. Type of data set: ADME, organism-based. The note with it: in vivo.
Data set [11] can be described thus: Neurotoxicity in mouse DRG neuron assessed as reduction in neurite length at 10 uM incubated for 24 hrs. Type of data set: toxicity, cell-based.
Data set [12] can be described thus: MRT (0 to infinity) in mouse at 10 mg/kg, po administered as single dose. Type of data set: ADME, organism-based. The note with it: in vivo.
The nature of data set [13]: Neurotoxicity in mouse HT-22 cells assessed as reduction in neurite length at 30 uM incubated for 48 hrs. Type of data set: toxicity, cell-based. The note with it: ht-22, 48 h.
Data set [14] can be described thus: Cmax in mouse at 10 mg/kg, po administered as single dose. The note with it: in vivo. Type of data set: ADME, organism-based.
Data set [15] in a line: Neurotoxicity in PAPD7-knockout mouse HT-22 cells assessed as reduction in neurite length. Type of data set: toxicity, cell-based.
Data set [16] is described as follows: Neurotoxicity in PAPD5-knockout mouse HT-22 cells assessed as reduction in neurite length. Type of data set: toxicity, cell-based.
Data set [17] can be described thus: Neurotoxicity in mouse HT-22 cells assessed as reduction in neurite length at 10 to 30 uM incubated for 24 to 48 hrs. Type of data set: toxicity, cell-based. The note with it: ht-22, 30 µM, dose lower 10 µM, time lower 24 hrs, dose upper 30 µM, time upper 48 hrs.

Structures are written as SMILES. pIC50: −log10 of the molar value.

For `COc1cc2c(cc1N1CCC3(CCOC3)C1)CC(C(C)C)n1cc(C(=O)O)c(=O)cc1-2` (stereo not drawn), the pIC50 (as a rule, the IC50 on a negative log10 scale, so that one unit is a factor of ten) in [1] is 8.30; in [2], 7.21; in data set [3], 6.48.

For the compound `COc1cc2c(cc1N1CCC3(CC1)OCCO3)CC(C(C)C)n1cc(C(=O)O)c(=O)cc1-2` (stereo not drawn), the values for the negative logarithm of the IC50 (pIC50) in data set [1], in [2] and in data set [3] were 7.92, 7.06 and 9.30, respectively.

As for `COc1cc2c(cc1OC[C@@H]1CCCO1)C[C@@H](C(C)C)n1cc(C(=O)O)c(=O)cc1-2`, the pIC50 in data set [1], in [2] and in [3] was 9.22 each time.

Regarding `COc1cc2c(cc1OCCCN1CCC3(CCOC3)C1)CC(C(C)C)n1cc(C(=O)O)c(=O)cc1-2` (stereo not drawn), the negative-log IC50 (pIC50) in [1] was 6.71; in [2] it was under 6.00; in data set [3], 7.51.

As to `COc1cc2c(cc1N1CCC3(C1)OCCO3)CC(C(C)C)n1cc(C(=O)O)c(=O)cc1-2` (stereo not drawn), the pIC50 is 8.74 in [1], 7.42 in data set [2] and 8.12 in data set [3].

Consider `COc1cc2c(cc1OCCCN1CCC3(C1)OCCO3)C[C@@H](C(C)C)n1cc(C(=O)O)c(=O)cc1-2`, for which, in data set [4], the Activity entry is listed as “Non-Toxic”. The pIC50 in [1] is 7.64; in [2] it was 6.71. Besides, the viability at 30 µM in data set [5] came to 74.9%.

Consider `COc1cc2c(cc1OCCCN1CCC3(C1)OCCO3)C[C@H](C(C)C)n1cc(C(=O)O)c(=O)cc1-2`, for which the pIC50 is 6.72 in data set [1] and 6.07 in data set [2].

For `COc1cc2c(cc1OCCCN1CCC3(CCCO3)CC1)CC(C(C)C)n1cc(C(=O)O)c(=O)cc1-2` (stereo not drawn), the pIC50 in data set [1] was 7.21; in data set [2], under 6.00; in data set [3] it was 6.66.

In the case of `COc1cc2c(cc1N1CCOCC1)C[C@H](C(C)C)n1cc(C(=O)O)c(=O)cc1-2`, the values for the pIC50 in data set [1] and in data set [2] were 6.22 and under 6.00, respectively.

Regarding `COc1cc2c(cc1N1CCC3(CCOCC3)C1)C[C@H](C(C)C)n1cc(C(=O)O)c(=O)cc1-2`, the pIC50 in data set [1] was 7.00; in data set [2], 6.06.

As to `COc1cc2c(cc1OCCCN1CCC3(C1)OCCO3)CC(C(C)C)n1cc(C(=O)O)c(=O)cc1-2` (stereo not drawn), the negative-log IC50 (pIC50) in [1] is 7.48; in data set [2], 6.50; in data set [3], 7.33.

For `COc1cc2c(cc1N1CCC3(C1)OCCO3)C[C@H](C(C)C)n1cc(C(=O)O)c(=O)cc1-2`, the pIC50 in data set [1] is 6.90; in [2], 6.18.

In the case of `COc1cc2c(cc1N1CCC3(C1)OCCO3)C[C@@H](C(C)C)n1cc(C(=O)O)c(=O)cc1-2`, the Activity result in data set [4] and in [6] was “Non-Toxic” each time. Besides, the values for the pIC50 in data set [1] and in data set [2] were 8.40 and 7.08, respectively.

Regarding `COc1cc2c(cc1N1CCC3(CCN(C(=O)OC(C)(C)C)CC3)C1)CC(C(C)C)n1cc(C(=O)O)c(=O)cc1-2` (stereo not drawn), the pIC50 is 7.80 in data set [1], 6.95 in data set [2] and 7.30 in [3].

For `COc1cc2c(cc1OC1CCC3(CCOCC3)CC1)CC(C(C)C)n1cc(C(=O)O)c(=O)cc1-2` (stereo not drawn), the values for the negative-log IC50 (pIC50) in data set [1], in data set [2] and in data set [3] were 6.82, 7.33 and 7.42, respectively.

In the case of `COc1cc2c(cc1N1CCC3(CCCO3)CC1)CC(C(C)C)n1cc(C(=O)O)c(=O)cc1-2` (stereo not drawn), the pIC50 was 7.57 in [1], 6.53 in data set [2] and 7.40 in data set [3].

Turning to `COc1cc2c(cc1N1CCC(C(=O)O)CC1)CC(C(C)C)n1cc(C(=O)O)c(=O)cc1-2` (stereo not drawn), the pIC50 is 5.91 in data set [1], under 6.00 in [2] and 6.39 in [3].

`COc1cc2c(cc1N1CCOCC1)C[C@@H](C(C)C)n1cc(C(=O)O)c(=O)cc1-2`: the Activity entry in data set [4], in data set [8], in data set [11], in data set [13] and in data set [6] was “Non-Toxic” each time. Also, the half-life (usually how long it takes for the measured level to halve) in [7] was 125 min. Further, the values for the pIC50 in data set [1] and in data set [2] were 7.64 and 6.54, respectively. Further, the area under the curve AUC(0-inf) (usually the area under the concentration-time curve extrapolated to infinity) in data set [9] worked out at 23400 ng·h/mL. Further, the Tmax (commonly the time from dosing to the highest level) in data set [10] worked out at 34.8 min. For the same compound, the MRT inf (commonly the average time that molecules of a dose stay in the body) in data set [12] was 2.69 h. Moreover, the Cmax – broadly, the highest concentration seen after dosing – in data set [14] was determined as 7620 ng/mL.

For the compound `COc1cc2c(cc1N1CCC3(CCOCC3)C1)C[C@@H](C(C)C)n1cc(C(=O)O)c(=O)cc1-2`, the Activity entry in [4] and in data set [6] was “Non-Toxic” in each case. Also, the pIC50 is 8.30 in data set [1] and 7.15 in [2].

Take `COc1cc2c(cc1N1CCOCC1)CC(C(C)C)n1cc(C(=O)O)c(=O)cc1-2` (stereo not drawn): the pIC50 in data set [1] is 8.10; in data set [2], 7.00; in data set [3], 8.10.

On to `COCCCOc1cc2c(cc1OC)-c1cc(=O)c(C(=O)O)cn1[C@H](C(C)C)C2`, for which the Activity result in [4] was “Non-Toxic”; in data set [15] it was “Toxic”; in data set [16], “Toxic”; in data set [17], “Toxic”; in [6] it was “Non-Toxic”. For the same compound, in data set [7], the half-life is 143 min. For the same compound, the pIC50 in [1] was 8.30; in [2], 7.04; in data set [3] it was 7.07. Further, the AUC(0-inf) in data set [9] was 10800 ng·h/mL. In addition, in data set [10], the Tmax came out at 25.2 min. For the same compound, in [12], the MRT inf was 1.66 h. This compound also came in with a Cmax in [14] of 6630 ng/mL.

Turning to `COc1cc2c(cc1N1CCC(O)CC1)CC(C(C)C)n1cc(C(=O)O)c(=O)cc1-2` (stereo not drawn), the pIC50 in data set [1] was 7.39; in data set [2], under 6.00; in data set [3] it was 6.52.

For the compound `COc1cc2c(cc1N1CCC3(CCOCC3)C1)CC(C(C)C)n1cc(C(=O)O)c(=O)cc1-2` (stereo not drawn), the pIC50 in data set [1] is 9.22; in data set [2], 8.30; in data set [3], over 8.80.

Take `COc1cc2c(cc1N1CC3COCC3C1)CC(C(C)C)n1cc(C(=O)O)c(=O)cc1-2` (stereo not drawn): the pIC50 is 7.85 in data set [1], 6.63 in [2] and 7.19 in data set [3].

Take `COc1cc2c(cc1N1CCC(C(F)(F)F)CC1)CC(C(C)C)n1cc(C(=O)O)c(=O)cc1-2` (stereo not drawn): the pIC50 was 7.52 in data set [1], 6.69 in [2] and 7.10 in data set [3].
